# Laboratory results published in patent US10058538B2, “Compositions comprising substituted benzofuroquinolizine and α2-adrenergic agonists” (VETCARE OY, priority 2014, dated 2018).
# Assays:
# [1] = system: beagle dogs; test: Composite sedation score (0-20) in dogs, medetomidine with or without MK-467 IM, reversal with atipamezole (Example 2); type: in vivo, dog; details: FIG. 3
# Protocol: Atipamezole (100 μg/kg IM) was administered at 30 min (arrow).
# The study was designed as a prospective, randomized, experimental cross-over study.
# Each dog (n=7) was treated twice with a 14-days washout period: • Medetomidine (20 μg/kg) at 0 min, followed by Atipamezole (100 μg/kg) at 30 min • Medetomidine (20 μg/kg)+MK-467 (400 μg/kg) at 0 min, followed by Atipamezole (100 μg/kg) at 30 min
# Medetomidine and MK-467 were mixed in the same syringe and administered intramuscularly.
# Sedation was scored by a veterinarian blinded for treatment with the following score:
# Composite Sedation Score (0-20)
# • 0 Standing • 1 Standing but staggers • 2 Sternal head up • 3 Sternal head down • 4 Lateral head down 2. […] Position of the Eye (0-2) • 0 Middle • 2 Turned down 4. Jaw and Tongue Relaxation (0-4) • 0 Normal, opens the jaws but resists manipulation of the tongue • 1 Bites jaws together • 2 Opens the jaws but strong resistance when tongue is pulled • 3 Slight resistance when tongue is pulled • 4 No resistance 5. Resistance to Positioning in Lateral Recumbency (0-3) • 0 Normal • 1 Turns back to sternal position • 2 Some resistance but stays in lateral recumbency • 3 No resistance or the position is already lateral 6. […]
# [2] = system: dogs; details: medetomidine 20 μg/kg IM or 10 μg/kg IV, compared with baseline values; cited from earlier work
# [3] = by reduction in heart rate and cardiac output after medetomidine administration; cited from earlier work
# [4] = system: dogs; details: dexmedetomidine 10 μg/kg IV, MK-467 250, 500 and 750 μg/kg, especially with higher doses; cited from earlier work
structure (smiles),measurement,setting,value
"Cc1cccc(C(C)c2cnc[nH]2)c1C (racemic) [medetomidine, (RS)-4-[1-(2,3-dimethylphenyl)ethyl]-3H-imidazole]",resedation after atipamezole reversal,"[1]; medetomidine 20 μg/kg IM alone or with MK-467 400 μg/kg in the same syringe, atipamezole 100 μg/kg IM at 30 min",resedation seen
same,"heart rate (HR), mixed-venous partial pressure of oxygen (Pvo(2)) and cardiac index (CI)",[2],significantly lower
same,"mean arterial blood pressure (MAP), systemic vascular resistance (SVR) and oxygen extraction ratio (ER)",[2],significantly higher
same,decrease of global Do2 (oxygen delivery),[3],at least 50%
"Cc1cccc([C@H](C)c2c[nH]cn2)c1C [dexmedetomidine, (S)-4-[1-(2,3-Dimethylphenyl)ethyl]-3H-imidazole]",BIS-values (bispectral index),[4],decreased
CCC1(c2cnc[nH]2)Cc2ccccc2C1 [atipamezole],reversal of medetomidine induced sedation,[1]; atipamezole 100 μg/kg IM at 30 min after medetomidine 20 μg/kg IM alone or with MK-467 400 μg/kg,reversed
